From US5328902A, “7-(substituted)-9-[(substituted glycyl)amido]-6-demethyl-6-deoxytetracyclines” (American Cyanamid Co., priority 1992, dated 1994)

How the values were obtained:
Type in all cases: cell-based
E. coli UBMS 88-1 Tet B = test: microbe, parasite or virus in culture; conditions: E. coli UBMS 88-1 Tet B; 18 hours at 35° C.
E. coli J3272 Tet sens. = test: MIC, agar dilution
E. coli PRP1 Tet A = test: microbe, parasite or virus in culture; conditions: E. coli PRP1 Tet A
[1] = tested on: E. coli MC 4100 TNIOC Tet B; test: microbe, parasite or virus in culture; conditions: E. coli MC 4100 TNIOC Tet B
E. coli J3272 Tet C = test: microbe, parasite or virus in culture; conditions: E. coli J3272 Tet C
E. coli UBMS 89-1 Tet M = test: microbe, parasite or virus in culture; conditions: E. coli UBMS 89-1 Tet M
[2] = tested on: E. coli UBMS 89-2 Tet sens.; test: MIC, agar dilution; conditions: E. coli UBMS 89-2 Tet sens.
E. coli J2175 = test: MIC, agar dilution; conditions: E. coli J2175
E. coli UBMS 90-4 Tet M = test: microbe, parasite or virus in culture; conditions: E. coli UBMS 90-4 Tet M
E. coli UBMS 90-5 = test: MIC, agar dilution
E. coli #311 (MP) = test: MIC, agar dilution; conditions: E. coli #311 (MP)
E. coli ATCC 25922 = test: MIC, agar dilution; conditions: E. coli ATCC 25922
E. coli J3272 Tet D = test: microbe, parasite or virus in culture; conditions: E. coli J3272 Tet D
S. mariescens FPOR 8733 = test: MIC, agar dilution
[3] = tested on: Ps. acruginosa ATCC 27853; test: MIC, agar dilution; conditions: Ps. acruginosa ATCC 27853
S. aureus UBMS 88-4 = test: MIC, agar dilution; conditions: S. aureus UBMS 88-4
[4] = tested on: S. aureus UBMS 88-7 Tet K; test: microbe, parasite or virus in culture; conditions: S. aureus UBMS 88-7 Tet K
[5] = tested on: S. aureus UBMS 90-1 Tet M; test: microbe, parasite or virus in culture; conditions: S. aureus UBMS 90-1 Tet M
S. aureus UBMS 90-3 = test: MIC, agar dilution; conditions: S. aureus UBMS 90-3
[6] = tested on: S. aureus UBMS 90-2 Tet M; test: microbe, parasite or virus in culture; conditions: S. aureus UBMS 90-2 Tet M
S. aureus IVES 2943 = test: MIC, agar dilution; conditions: S. aureus IVES 2943
S. aureus ROSE (MP) = test: MIC, agar dilution; conditions: S. aureus ROSE (MP)
S. aureus IVES 1 983 = test: MIC, agar dilution; conditions: S. aureus IVES 1 983
S. aureus ATCC 29213 = test: MIC, agar dilution; conditions: S. aureus ATCC 29213
[7] = tested on: S. hemolyticus AVHAH 88-3; test: MIC, agar dilution; conditions: S. hemolyticus AVHAH 88-3
Enterococcus 12201 = test: MIC, agar dilution; conditions: Enterococcus 12201
E. faecalis ATCC 29212 = test: MIC, agar dilution; conditions: E. faecalis ATCC 29212
E. coli BAJ9003 IMP MUT = test: microbe, parasite or virus in culture; conditions: E. coli BAJ9003 IMP MUT
S. aureus NEMC 8769 = test: MIC, agar dilution; conditions: S. aureus NEMC 8769
[8] = tested on: S. aureus UBMS 88-5 Tet M; test: microbe, parasite or virus in culture; conditions: S. aureus UBMS 88-5 Tet M
S. aureus SMITH (MP) = test: MIC, agar dilution; conditions: S. aureus SMITH (MP)

Compound	MIC (E. coli UBMS 88-1 Tet B)	MIC (E. coli J3272 Tet sens.)	MIC (E. coli PRP1 Tet A)	MIC [1]	MIC (E. coli J3272 Tet C)	MIC (E. coli UBMS 89-1 Tet M)	MIC [2]	MIC (E. coli J2175)	MIC (E. coli UBMS 90-5)	MIC (E. coli #311 (MP))	MIC (E. coli ATCC 25922)	MIC (E. coli J3272 Tet D)	MIC (S. mariescens FPOR 8733)	MIC [3]	MIC (S. aureus UBMS 88-4)	MIC [5]	MIC (S. aureus UBMS 90-3)	MIC (S. aureus IVES 1 983)	MIC (S. aureus ATCC 29213)	MIC (E. faecalis ATCC 29212)	also measured
[7S-(7alpha,10aalpha)]-N-[9-(Aminocarbonyl)-4,7-bis(dimethylamino)-5,5a,6,6a,7,10,10a,12-octahydro-1,8,10a,11-tetrahydroxy-10,12-dioxo-2-naphthacenyl]-4-thiomorpholineacetamide dihydrochloride [F]	> 32 µg/mL	> 32 µg/mL	> 32 µg/mL	> 32 µg/mL	> 32 µg/mL	> 32 µg/mL	> 32 µg/mL	> 32 µg/mL	> 32 µg/mL	> 32 µg/mL	32 µg/mL	16 µg/mL	> 32 µg/mL	> 32 µg/mL	1 µg/mL	1 µg/mL	1 µg/mL	4 µg/mL	1 µg/mL	0.25 µg/mL	MIC (E. coli UBMS 90-4 Tet M): > 32 µg/mL; MIC [4]: 4 µg/mL; MIC [6]: 1 µg/mL; MIC (S. aureus IVES 2943): 4 µg/mL; MIC (S. aureus ROSE (MP)): 8 µg/mL; MIC [7]: 4 µg/mL; MIC (Enterococcus 12201): 1 µg/mL
CN(C)c1cc(NC(=O)C2CCCN2C(=O)C(F)(F)F)c(O)c2c1CC1CC3[C@H](N(C)C)C(O)=C(C(N)=O)C(=O)[C@@]3(O)C(O)=C1C2=O.Cl.Cl (stereo partly drawn) [A, [7S-(7alpha,10aalpha)]-N-[9-(Aminocarbonyl)4,7-bis(dimethylamino)-5,5a,6,6a,7,10,10a, 12-octahydro-l,8,10a,ll-tetrahydroxy-10,12-dioxo-2-naphthacenyl]-l-(trifluoroacetyl)-2-pyrrolidinecarboxamide dihydrochloride]	8 µg/mL	8 µg/mL	> 32 µg/mL	8 µg/mL	8 µg/mL	8 µg/mL	8 µg/mL	8 µg/mL	4 µg/mL	8 µg/mL	8 µg/mL	2 µg/mL	> 32 µg/mL	> 32 µg/mL	4 µg/mL	8 µg/mL	1 µg/mL	16 µg/mL	4 µg/mL	2 µg/mL	MIC (E. coli BAJ9003 IMP MUT): 1 µg/mL; MIC (S. aureus NEMC 8769): 1 µg/mL; MIC [8]: 4 µg/mL; MIC [4]: 16 µg/mL; MIC [6]: 2 µg/mL; MIC (S. aureus IVES 2943): 16 µg/mL; MIC (S. aureus ROSE (MP)): 32 µg/mL; MIC (S. aureus SMITH (MP)): 2 µg/mL; MIC [7]: 8 µg/mL
[4S-(4alpha,12aalpha)]-9-[(Bromoacetyl)amino]-4,7-bis(dimethylamino)-1,4,4a,5,5a,6, 11,12a-octahydro-3,10,12,12a-tetrahydroxy-1, 11-dioxo-2-naphthacenecarboxamide dihydrochloride		16 µg/mL	> 32 µg/mL	> 32 µg/mL	> 32 µg/mL	4 µg/mL	32 µg/mL	32 µg/mL	16 µg/mL	8 µg/mL	16 µg/mL	32 µg/mL	> 32 µg/mL	> 32 µg/mL		1 µg/mL	0.5 µg/mL	4 µg/mL	0.5 µg/mL	0.5 µg/mL	MIC (S. aureus NEMC 8769): 0.12 µg/mL; MIC [8]: 1 µg/mL; MIC (Enterococcus 12201): 1 µg/mL
